Experimental data reported in article PMC9995496, “A screen for MeCP2-TBL1 interaction inhibitors using a luminescence-based assay” (Scientific Reports, 2023).
Structures can show the parent of a compound that is named as a salt. Peptide text beside a SMILES is read from it. * marks the point of attachment. Cbz = O=C(OCc1ccccc1)*; CH2F = FC*

System: PRKACA-PRKAR2A interaction (SmBiT-PRKACA / LgBiT-PRKAR2A), protein kinase A
Design: NanoLuc complementation counter-screen in cell extract, PRKACA with PRKAR2A, loss of luminescence, detects NanoLuc interference
Settings: counter-screen for NanoLuc interference, 0.5 h, 20 µM, inhibitor, Inh (PKA)

Structure (SMILES)	Inh (PKA) [%]
COc1ccc(S(=O)(=O)N(CCO)c2ccccc2CN(C)C/C=C/c2ccc(Cl)cc2)cc1 [UM0142198:01, KN-93 hydrochloride]	38.66
c1ccc2c(-c3cnn4cc(-c5ccc(N6CCNCC6)cc5)cnc34)ccnc2c1 [UM0141989:01, LDN-193189]	1.838
Nc1nc2[nH]cc(CCc3ccc(C(=O)N[C@@H](CCC(=O)O)C(=O)O)cc3)c2c(=O)[nH]1 [UM0141829:01, Pemetrexed]	-0.0222
COc1ccc2[nH]c([S@@+]([O-])Cc3ncc(C)c(OC)c3C)nc2c1 [UM0142233:01, Esomeprazole Sodium]	0.8501
O=C(Cc1ccc(-c2ccc(OCCN3CCOCC3)cc2)cn1)NCc1ccccc1 [UM0142472:01, KX2-391]	3.767
CCCC(CCC)C(=O)O [UM0128554:02, Valproic acid]	-0.4434

Same assay, conditions: counter-screen for NanoLuc interference; 0.5 h, 20 µM; inhibitor

Structure (SMILES)	Inh (PKA) [%]
CC1(C)CC(=O)c2c(C(F)(F)F)nn(-c3ccc(C(N)=O)c(N[C@H]4CC[C@H](O)CC4)c3)c2C1 [UM0141689:01, SNX-2112]	12.62
NCCC(O)(P(=O)(O)O)P(=O)(O)O [UM0141459:01, Pamidronate Disodium]	0.7087
C=CC(=O)Nc1ccc2ncnc(Nc3cccc(Br)c3)c2c1 [UM0141440:01, PD168393]	22.44
O=C(O)c1ccc(-c2c[nH]c3ncc(-c4ccccc4)cc23)cc1C1CCCC1 [UM0142163:01, GSK 650394]	18.1
CC1(C)[C@H](C(=O)O)N2C(=O)C[C@H]2S1(=O)=O [UM0142408:01, Sulbactam sodium]	1.508
CC[C@H]1OC(=O)[C@H](C)[C@@H](O[C@H]2C[C@@](C)(OC)[C@@H](O)[C@H](C)O2)[C@H](C)[C@@H](O[C@@H]2O[C@H](C)C[C@H](N(C)C)[C@H]2O)[C@](C)(O)C[C@@H](C)CN(C)[C@H](C)[C@@H](O)[C@]1(C)O [UM0121404:03, Azithromycin]	0.6112
Nc1ccn([C@@H]2CS[C@H](CO)O2)c(=O)n1 [UM0142052:01, Lamivudine]	-0.4847
CCCCCN(C)CCC(O)(P(=O)(O)O)P(=O)(O)O [UM0142363:01, Ibandronate sodium]	1.018
O=C(/C=C/c1ccccc1)NC(NC(=S)Nc1ccc(Cl)cc1)C(Cl)(Cl)Cl (stereo not drawn) [UM0141858:01, Sal 003]	56.23
O=C(O)C[C@H](O)C[C@H](O)/C=C/c1c(C2CC2)nc2ccccc2c1-c1ccc(F)cc1 [UM0142066:01, Pitavastatin Calcium]	41.78
COc1cc(-c2cc(-c3cccc(O)c3)cnc2N)cc(OC)c1OC [UM0142474:01, K02288]	26.47
CC[C@H](C)[C@H](NC(=O)[C@H](CCC(=O)OC)NC(=O)[C@@H](NC(=O)OCc1ccccc1)C(C)C)C(=O)N[C@@H](CC(=O)OC)C(=O)CF [UM0141430:01, Z-VEID-FMK] (Cbz-VE(OMe)ID(OMe)-CH2F)	-0.4163
CN(C)C(=N)NC(=N)N [UM0142397:01, Metformin HCl]	1.975
C=C[C@@H]1C[C@]1(NC(=O)[C@@H]1C[C@@H]2CN1C(=O)[C@H](C(C)(C)C)NC(=O)O[C@@H]1C[C@H]1CCCCCc1nc3ccc(OC)cc3nc1O2)C(=O)NS(=O)(=O)C1CC1 [UM0141587:01, MK-5172]	6.735
COC(=O)c1ccc2c(c1)NC(=O)/C2=C(\Nc1ccc(N(C)C(=O)CN2CCN(C)CC2)cc1)c1ccccc1 [UM0141972:01, Nintedanib (BIBF 1120)]	17.71
CN/C(=N\CCSCc1nc[nH]c1C)NC#N [UM0142305:01, Cimetidine]	1.548
Cc1cc(C)cc(C(=O)NOCCCCCC(=O)NO)c1 [UM0141845:01, LMK 235]	-1.396
CC(O)c1cc(C(=O)N[C@@H](C)Cn2ccc(-c3ccc(C#N)c(Cl)c3)n2)n[nH]1 (stereo partly drawn) [UM0142049:01, ODM-201]	2.703
C[N+]1(C)[C@@H]2C[C@@H](OC(=O)[C@H](CO)c3ccccc3)C[C@H]1[C@@H]1O[C@@H]12 [UM0142326:01, Methscopolamine]	1.249
NC(=O)N1c2ccccc2C=Cc2ccccc21 [UM0133618:02, Carbamazepine]	3.187
Cc1ccc(NC(=O)c2ccc(CN3CCN(C)CC3)cc2)cc1Nc1nc(-c2cccnc2)cs1 [UM0127954:03, Masitinib (AB1010)]	15.54
CCC1=C[C@@H]2CN(C1)Cc1c([nH]c3ccccc13)[C@@](C(=O)OC)(c1cc3c(cc1OC)N(C)[C@H]1[C@@](O)(C(=O)OC)[C@H](OC(C)=O)[C@]4(CC)C=CCN5CC[C@]31[C@@H]54)C2 [UM0141644:01, Vinorelbine ditartrate]	3.937
CNC(=O)c1cc(Oc2ccc(NC(=O)c3cccc(C(F)(F)F)c3)cc2)ccn1 [UM0141965:01, SKLB610]	8.796
C=CCc1ccc(O)c(-c2ccc(O)c(CC=C)c2)c1 [UM0119411:03, Honokiol]	48.27

Structure (SMILES)	Inh (PKA) [%]
Nc1c(CC(=O)O)cccc1C(=O)c1ccccc1 [UM0142341:01, Amfenac Sodium Monohydrate]	3.127
CC1(COc2ccc3c(c2)ncn3-c2ccc3cccc(N4CCC(N)CC4)c3n2)COC1 [UM0139425:02, Crenolanib (CP-868596)]	13.43
CCN(CC)C(=S)SSC(=S)N(CC)CC [UM0118234:04, Disulfiram]	21.36
Nc1c(Br)cc(Br)cc1CN[C@H]1CC[C@H](O)CC1 [UM0142466:01, Ambroxol HCl]	4.132
O=C(Nc1cccc(Nc2ncc(Br)c(NCCc3cnc[nH]3)n2)c1)N1CCCC1 [UM0141484:01, BX-912]	45.28
NC(=O)c1ncn([C@@H]2O[C@H](CO)[C@@H](O)[C@H]2O)c1O [UM0119983:03, Mizoribine]	-0.2089
O=c1cc(-c2ccc(O)cc2)oc2cc(O)cc(O)c12 [UM0133861:02, Apigenin]	24.67
O=C1c2ccc(Nc3ccc(F)cc3F)cc2CCc2ccc(OC[C@H](O)CO)cc21 [UM0141631:01, Skepinone-L]	17.25
CC(=O)c1cc2c(o1)C(=O)c1ccccc1C2=O [UM0142718:01, Napabucasin]	2.166
CNC(=O)c1ccc(C)c(-n2c(C)cc(OCc3ccc(F)cc3F)c(Br)c2=O)c1 [UM0141978:01, PH-797804]	5.099
O=C1[C@H](Cc2ccc(O)cc2)N2C(=O)CCN(C(=O)NCc3ccccc3)[C@H]2CN1Cc1cccc2ccccc12 [UM0139430:02, ICG 001]	13.98
CSc1ccc2c(c1)N(CCC1CCCCN1C)c1ccccc1S2 (stereo not drawn) [UM0142076:01, Thioridazine HCl]	11.27
C[C@]1(c2nc3c(C(N)=O)cccc3[nH]2)CCCN1 [UM0141654:01, Veliparib dihydrochloride]	0.673
O=C(c1ccc(Cl)cc1Cl)n1nnc2ccccc21 [UM0128552:02, ITSA-1 (ITSA1)]	13.93
C=CC(=O)Nc1cc2c(Nc3ccc(F)c(Cl)c3)ncnc2cc1OCCCN1CCOCC1 [UM0141416:01, Canertinib (CI-1033)]	5.945
O=c1[nH]c2ccc(Cl)cc2c(N[C@@H]2CN3CCC2CC3)c1-c1nc2ccccc2[nH]1 [UM0142025:01, CHIR-124]	30.1
O=C1CCC[C@@H]2[C@H]3CCCN4CCC[C@@H](CN12)[C@@H]34 [UM0141584:01, Matrine]	1.794
Nc1ccn([C@H]2CC[C@@H](CO)O2)c(=O)n1 [UM0133684:02, Zalcitabine]	-0.04839
C=CCNC(N)=S [UM0142388:01, Allylthiourea]	3.519
CCS(=O)(=O)Nc1ccc2c(c1)/C(=C(/Nc1ccc(CN3CCCCC3)cc1)c1ccccc1)C(=O)N2 [UM0141715:01, Hesperadin]	53.45
CCCC[S+]([O-])c1sc2nc(-c3cccs3)cc(-c3ccccc3)c2c1N (stereo not drawn) [UM0142124:01, SW033291]	33.39
NC(=O)c1ccc(I)c([N+](=O)[O-])c1 [UM0141736:01, Iniparib (BSI-201)]	1.39
COC(=O)N[C@H](C(=O)N1CC2(CC2)C[C@H]1c1nc(-c2ccc3c(c2)C(F)(F)c2cc(-c4ccc5[nH]c([C@@H]6[C@H]7CC[C@H](C7)N6C(=O)[C@@H](NC(=O)OC)C(C)C)nc5c4)ccc2-3)c[nH]1)C(C)C [UM0141578:01, Ledipasvir]	1.236
CC(C)c1cc(C(=O)N2Cc3ccc(CN4CCN(C)CC4)cc3C2)c(O)cc1O [UM0141683:01, AT13387]	8.919
